# In ChEMBL document CHEMBL5532709, “Discovery of Biofilm Inhibitors from the Microbiota of Marine Egg Masses” (J Nat Prod, 2024):
# Active and inactive are the calls of the source. The rule behind the calls is not given here.
# Assays:
# [1] = system: Staphylococcus aureus; assay: Inhibition of biofilm formation of methicillin-resistant Staphylococcus aureus N315 at ~1 ug/ml incubated for 24 hrs by crystal violet staining based analysis relative to control; assay type: functional
# [2] = system: Isoptericola; assay: Inhibition of biofilm formation of Isoptericola at 0.005 to 10 mg/ml incubated for 16 to 20 hrs by crystal violet staining based analysis; assay type: functional, organism-based
# [3] = system: Staphylococcus aureus; assay: Antibacterial activity against Staphylococcus aureus assessed as bacterial growth inhibition at 0.005 to 10 mg/ml incubated for 16 to 20 hrs by crystal violet staining based analysis; assay type: functional, organism-based; details: dose 0.005-10 mg/ml, time 16-20 hrs
# [4] = system: Staphylococcus aureus; assay: Inhibition of biofilm formation of Staphylococcus aureus incubated for 16 to 20 hrs by crystal violet staining based analysis; assay type: functional, organism-based
# [5] = system: Staphylococcus aureus; assay: Disruption of pre-formed biofilm of Staphylococcus aureus at 518 uM incubated for 16 to 20 hrs by crystal violet staining based analysis relative to control; assay type: functional; details: time 16-20 hrs
# [6] = system: Staphylococcus aureus; assay: Inhibition of biofilm formation of Staphylococcus aureus at […] incubated for 16 to 20 hrs in presence of >6.25 uM FeCl3 by crystal violet staining based analysis; assay type: functional, organism-based; details: dose lower 88.0 mg/ml, time 16-20 hrs
# [7] = system: Vibrio cholerae; assay: Inhibition of biofilm formation of Vibrio cholerae incubated for 4.5 hrs by epifluorescence based assay; assay type: functional, organism-based
structure (smiles),measurement,setting,value
CCCCC1CCCCCCc2cc1c(/C=C1\N=C(c3ccc[nH]3)C=C1OC)[nH]2 (stereo not drawn) [STREPTORUBIN B],inhibition at 1 µg/mL,[1],70%
O=C(NCCCC[C@@H]1CN=C(c2cccc(O)c2O)N1)c1cccc(O)c1O,IC50,[2],50.6 µM
same,inhibition,[3],inactive
same,IC50,[4],88.5 µM
same,inhibition,[4]; time 16-20 hrs,Dose-Dependent Effect
same,Activity,[5],30%
same,inhibition,[6],inactive
C=C1Oc2cc(OC)cc(C(=O)OC)c2NC1=O,IC50,[7],60.1 µM
